# According to patent US12637469B2, “1H-pyrazole derivative and application thereof as dual target inhibitor of Syk and VEGFR2” (Ocumension Therapeutics (Suzhou) Co., Ltd., priority 2020, dated 2026):
# How the values were obtained:
# [1] = target: T1, Syk kinase (Homo sapiens, UniProt P43405); assay: In vitro inhibitory effect on Syk kinase (HTRF enzymatic experiment); type: biochemical; conditions: ATP 2 μM, read-out: IC50 (nM) for inhibition of Syk enzyme
# T1 construct: purchased Invitrogen PV3857
# Excerpt: The interaction between the substrate and the enzyme was detected by HTRF, using the IC50 value of the compound as an indicator to evaluate the inhibitory effect of the compound on Syk kinase.
# • Syk kinase (Invitrogen, PV3857) • DTT (Sigma #43815) • ATP (Sigma #A7699) • MgCl2 (Sigma #63020) • MnCl2 (Sigma #M1787) • EDTA (Invitrogen #15575-020) • HEPES Buffer (Invitrogen #15630-080) • HTRF® KinEASE™ TK (Cisbio #62TKOPEC, 20000 tests) • Low volume, 384-well, white polystyrene plate (Greiner #784075) • 384 Well Microplates (Greiner #781946) • Centrifuge (Eppendorf #5810R) • Pipette (Eppendorf) • Pipette (Greiner) • Pipette gun (Eppendorf) • Mutidorp Pipette • POD 810 Plate Assembler Automatic Microplate Pretreatment System • Envision Reader • Experimental Steps and Methods: • a) Compound dilution and plate-making: • 1) The compound powder was weighed, dissolved in a certain amount of DMSO at an initial concentration of 10 mM. • 2) The compound was diluted to a concentration of 0.74 mM, and plated with POD18, 135 nL per well, the starting compound concentration was 10 μM, and there were 11 concentration points, with 3-fold descending serial dilutions. • b) Enzyme-substrate reaction stage: • 1) Preparation and dilution of the experimental buffer: the 5×HTRF Buffer in the kit was diluted to 1×, and specified amounts of DTT and MgCl2 solutions were added for use. • 2) SYK enzyme reaction solution was prepared with 1×HTRF Buffer so that the final reaction concentration of SYK kinase was 0.0156 ng/μL. • 3) TK-Substrate-biotin/ATP mixture was prepared so that the final substrate concentration was controlled at 0.2 μM. ATP concentration was controlled at 2 μM. • 4) The solution and the mixture were added with a Mutidorp pipette, SYK enzyme solution and TK-Substrate-biotin/ATP mixture were each added 5 μL per well, and incubated with 23 solution for 1 hour. • c) Detection stage: • 1) 13.33 mL of ethylenediaminetetraacetic acid solution was added to the detection buffer of the kit, and specified amounts of Eu-labeled antibody and XL-665 were added to prepare the detection solution. • 2) The solution was added with a Mutidorp pipette, 10 μL of detection solution per well, and incubated with 23 solution for 1 hour. The reaction of the enzyme and substrate mixture was stopped. • 3) After centrifugation, the reading was obtained on Envision. • d) Data analyzation: the data was analyzed using XL-Fit and the IC50 value of the compound was calculated.
# [2] = target: VEGFR2 kinase (KDR enzyme) (Homo sapiens, UniProt P35968); assay: In vitro inhibitory effect on VEGFR2 kinase (ADP-Glo enzymatic experiment); type: biochemical; conditions: read-out: IC50 (nM) for inhibition of VEFGR2 enzyme
# VEGFR2 kinase (KDR enzyme), sequence (P35968 20-1356, species assumed): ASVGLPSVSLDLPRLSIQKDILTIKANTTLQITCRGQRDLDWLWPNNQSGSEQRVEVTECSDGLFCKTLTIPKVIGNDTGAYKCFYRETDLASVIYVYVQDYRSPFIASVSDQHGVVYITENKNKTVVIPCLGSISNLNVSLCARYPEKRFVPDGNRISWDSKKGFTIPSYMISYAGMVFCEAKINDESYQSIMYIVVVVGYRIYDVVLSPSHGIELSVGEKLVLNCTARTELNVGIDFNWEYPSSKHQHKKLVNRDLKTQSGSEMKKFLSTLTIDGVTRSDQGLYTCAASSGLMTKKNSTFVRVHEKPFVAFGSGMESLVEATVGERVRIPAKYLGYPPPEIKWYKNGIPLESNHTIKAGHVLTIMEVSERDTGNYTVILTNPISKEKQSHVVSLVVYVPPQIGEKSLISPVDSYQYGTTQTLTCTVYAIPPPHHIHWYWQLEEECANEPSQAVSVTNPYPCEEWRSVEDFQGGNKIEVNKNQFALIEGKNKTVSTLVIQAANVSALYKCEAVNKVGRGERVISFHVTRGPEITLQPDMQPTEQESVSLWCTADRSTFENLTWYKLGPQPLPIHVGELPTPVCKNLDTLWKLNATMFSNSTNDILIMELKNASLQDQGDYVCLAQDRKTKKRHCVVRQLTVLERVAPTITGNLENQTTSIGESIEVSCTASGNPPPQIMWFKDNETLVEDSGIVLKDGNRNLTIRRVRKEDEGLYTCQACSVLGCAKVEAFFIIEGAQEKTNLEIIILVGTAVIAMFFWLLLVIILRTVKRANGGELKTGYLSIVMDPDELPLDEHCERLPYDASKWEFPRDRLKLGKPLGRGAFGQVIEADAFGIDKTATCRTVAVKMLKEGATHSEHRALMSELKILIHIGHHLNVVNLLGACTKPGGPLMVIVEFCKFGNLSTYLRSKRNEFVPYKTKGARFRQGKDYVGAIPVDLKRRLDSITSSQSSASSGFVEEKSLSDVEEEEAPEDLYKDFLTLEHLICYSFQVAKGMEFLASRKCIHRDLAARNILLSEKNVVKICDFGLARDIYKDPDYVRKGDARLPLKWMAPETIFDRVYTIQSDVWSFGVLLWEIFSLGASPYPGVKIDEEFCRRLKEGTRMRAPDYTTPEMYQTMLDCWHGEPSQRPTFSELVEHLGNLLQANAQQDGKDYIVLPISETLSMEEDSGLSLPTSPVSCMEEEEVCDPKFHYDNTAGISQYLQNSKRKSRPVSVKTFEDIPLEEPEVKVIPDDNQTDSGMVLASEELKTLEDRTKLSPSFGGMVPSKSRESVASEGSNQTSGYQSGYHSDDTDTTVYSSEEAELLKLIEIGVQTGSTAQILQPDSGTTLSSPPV
# Protocol: The VEGFR2 kinase assay kit is intended for measuring VEGFR2 kinase activity using Kinase-Glo®MAX as a detection reagent, and compound screening and analysis were conducted using the IC50 value of the compound as an indicator.
# The ADP-GLO™ Kinase Assay is an analytical reaction in which a luminescent kinase is used to determine the adenosine diphosphate formed by the kinase; ADP is converted to ATP, i.e., an optical signal is generated by Ultra-Glo™ luciferase. The optical signal is positively correlated with ADP quantity and kinase activity. This assay is ideal for determining the activity of the compound, making it ideal for primary screening and kinase selectivity analysis. The ADP-Glo™ Kinase Assay can be used to monitor the activity of virtually any ADP-producing enzyme such as a kinase orATPase: • 1) The enzyme, substrate, ATP and inhibitor were diluted in a kinase buffer; • 2) 384-well plate: 1 μL of inhibitor or (5% dimethyl sulfoxide solution), 2 μL of KDR enzyme, 2 μL of matrix/ATP mixture; • 3) the mixture was incubated at room temperature for 60 minutes; • 4) 5 μL of ADP-GLO™ reagent was added; • 5) the mixture was incubated for 40 minutes at room temperature; • 6) 10 μL of kinase detection reagent was added; • 7) the mixture was incubated at room temperature for 30 minutes; • 8) the luminescence was recorded (integration time 0.5-1 sec). The data was shown in relative light units (rlu), which was directly related to the amount of […]. There was correlation between the percent of the conversion from ATP to ADP for each kinase amount and the corresponding signal-to-background ratio. • 9) Data analysis: (a) KDR enzyme was titrated with 50 μM of ATP, and the luminescent signal produced by KDR enzyme was shown; (b) staurosporine dose response was generated with 1.5 ng of KDR to determine the IC50 value of the inhibitor.
IC50 [1] [nM],IC50 [2] [nM],Compound
11,41,CC(=O)N=S1(=O)CCN(c2ccc(Nc3nc4ccc(-c5cn[nH]c5)cc4n4ccnc34)cc2)CC1 [Compound 10]
34,56,c1cn2c(n1)c(Nc1ccc(C3CCOCC3)cc1)nc1ccc(-c3cn[nH]c3)cc12 [Compound 11]
30,31,CC1(O)CCN(c2ccc(Nc3nc4ccc(-c5cn[nH]c5)cc4n4ccnc34)cc2)CC1 [Compound 8]
315,88,c1cn2c(n1)c(Nc1ccc(N3CCC4(CC3)COC4)cc1)nc1ccc(-c3cn[nH]c3)cc12 [Compound 12]
125,31,c1cn2c(n1)c(Nc1ccc(N3CCOCC3)cc1)nc1ccc(-c3cc[nH]n3)cc12 [Compound 2]
23,22,N=S1(=O)CCN(c2ccc(Nc3nc4ccc(-c5cn[nH]c5)cc4n4ccnc34)cc2)CC1 [Compound 9]
34,42,CN1CCCN(c2ccc(Nc3nc4ccc(-c5cn[nH]c5)cc4n4ccnc34)cc2)CC1 [Compound 7]
50,44,CN1CCN(c2ccc(Nc3nc4ccc(-c5cn[nH]c5)cc4n4ccnc34)cc2)CC1 [Compound 6]
17,19,c1cn2c(n1)c(Nc1ccc(N3CCN(C4COC4)CC3)cc1)nc1ccc(-c3cn[nH]c3)cc12 [Compound 5]
